Laboratory results published in patent US20240284907A1, “NOVEL DERIVATIVES OF NON-CODED AMINO ACIDS AND THEIR USE AS HERBICIDES” (FortePhest LTD., priority 2021, published 2024).

System: Seeds of Lettuce R. (Super-Jericho)
Experiment: Filter paper bioassay with lettuce seeds: germination and early plant development, Minimal Effective Concentration (MEC)
Assay type: in vivo
Details: lettuce seeds on filter paper, 0 to 1 mmol/l, visually assessed after 6 days
Text: Materials: Seeds of Lettuce R. (Super-Jericho, non-sterilized) were obtained from Ben Shahar Moshe Ltd., 99% purity. The test compounds listed in the Table 2 below were synthetized de novo or purchased from different vendors.
Filter Paper Bioassays with Lettuce seeds: The protocol is following Bertin et al. 2009 and Movellan et al. 2014 with specified modifications as described below.
Seeds were placed on Whatman no. 1 filter paper (Whatman, Middlesex, U.K.) in Petri dishes (10 seeds per plate) with 2.0 ml of aqueous solution of a test material in concentration ranged from 0 (control) to 1 mmol/l were placed in a tray tilted at 45[…]. The trays were kept in dark for 48 hours and then transferred to the growth chamber with 6/18 dark/light cycle for 4 days. Each experiment was performed at least with two repeats.
The development of plants' radicle and shoots were visually assessed 6 days after the beginning of the test to determine Minimal Effective Concentration (MEC) of a test material. In the context of the invention, MEC is defined as the lowest concentration level of a test material that caused deviation (absence of germination or malformation of radicle or shoots) from the plant's development in the Control group.

Compound | Score (activity score of Minimal Effective Concentration, MEC)
O=C(O)C(F)(F)c1csc([N+](=O)[O-])n1 [compound 5719, 2,2-difluoro-2-(2-nitro-1,3-thiazol-4-yl)acetic acid] | Moderate (0.1 mM)
O=C(O)C(F)(F)c1sc(Cl)nc1Cl [compound 5722, (24-dichloro-1,3-thiazol-5-yl)(difluoro)acetic acid] | Weak (Higher than 0.1 mM)
CS(=O)(=O)NCCNCCc1cc(Cl)sc1Cl [compound 5723, N-(2-{[2-(2,5-dichlorothiophen-3-yl)ethyl]amino}ethyl)methane sulfonamide] | Strong (0.01 mM)
CC(=O)C1CN(CCc2cc(Cl)sc2Cl)CCC1=O (centres unmarked) [compound 5743, 3-acetyl-1-[2-(2,5-dichlorothiophen-3-yl)ethyl]piperidin-4-one] | Moderate (0.1 mM)
O=C(O)C1Cc2nnsc2S1 (centres unmarked) [compound 5750, 5H,6H-thieno[3,2-d][1,2,3]thiadiazole-5-carboxylic acid] | Moderate (0.1 mM)
O=C(O)C(F)(F)c1csc(-c2ccc(C(F)(F)F)cc2F)n1 [compound 5763, 2,2-difluoro-2-{2-[2-fluoro-4-(trifluoromethyl)phenyl]-1,3-thiazol-4-yl}acetic acid] | Moderate (0.1 mM)
O=C(O)C(F)(F)c1cscc1C(F)(F)F [compound 5764, difluoro[4-(trifluoromethyl)thiophen-3-yl]acetic acid] | Strong (0.01 mM)
NC(N)=NCCCc1cc(Cl)sc1Cl [compound 5765, N″-[3-(2,5-dichlorothiophen-3-yl)propyl]guanidine] | Strong (0.01 mM)
N=C(NCCc1cc(Cl)sc1Cl)Nc1ccc(O)cc1 [compound 5766, N-[2-(2,5-dichlorothiophen-3-yl)ethyl]-N′-(4-hydroxyphenyl)guanidine] | Moderate (0.1 mM)
O=C([O-])Cc1cnsn1.[Li+] [compound 5776, lithium(1+) 2-(1,2,5-thiadiazol-3-yl)acetate[Li+]] | Moderate (0.1 mM)
Cc1nsnc1CC(=O)O [compound 5785, (4-methyl-1,2,5-thiadiazol-3-yl)acetic acid] | Moderate (0.1 mM)
CCOC(=O)Cc1csc(Cl)c1 [compound 5796, ethyl(5-chlorothiophen-3-yl)acetate] | Moderate (0.1 mM)
O=C(O)C(F)(F)c1nnn[nH]1 [compound 5799, difluoro(1H-tetrazol-5-yl)acetic acid] | Moderate (0.1 mM)
O=C(Cc1csc(Cl)n1)OCC(=O)c1cccc(Br)n1 [compound 5801, 2-(6-bromopyridin-2-yl)-2-oxoethyl 2-(2-chloro-1,3-thiazol-4-yl)acetate] | Moderate (0.1 mM)
NC(=O)Nc1ccnc(Br)c1 [compound 6602, (2-bromopyridin-4-yl)urea] | Weak (Higher than 0.1 mM)
O=C(O)/C=C/c1cccc(Cl)n1 [compound 6603, (2E)-3-(6-chloropyridin-2-yl)prop-2-enoic acid] | Weak (Higher than 0.1 mM)
O=C(O)/C=C/c1cccnc1Cl [compound 6604, (2E)-3-(2-chloropyridin-3-yl)prop-2-enoic acid] | Moderate (0.1 mM)
O=C(O)/C=C/c1cccnc1Br [compound 6605, (2E)-3-(2-bromopyridin-3-yl)prop-2-enoic acid] | Strong (0.01 mM)
O=C(O)/C=C/c1ccnc(Br)c1 [compound 6606, (2E)-3-(2-bromopyridin-4-yl)prop-2-enoic acid] | Weak (Higher than 0.1 mM)
O=C(Nc1ccnc(Br)c1)c1ccnc(Br)c1 [compound 6607, 2-bromo-N-(2-bromopyridin-4-yl)pyridine-4-carboxamide] | Strong (0.01 mM)
O=C(O)C(=O)c1ccc(Br)nc1 [compound 6609, 2-(6-bromopyridin-3-yl)-2-oxoacetic acid] | Weak (Higher than 0.1 mM)
O=C(O)C(=O)Cc1ccnc(Br)c1 [compound 6611, 3-(2-bromopyridin-4-yl)-2-oxopropanoic acid] | Weak (Higher than 0.1 mM)

Compound | Score (activity score of Minimal Effective Concentration, MEC)
O=C(O)C(F)(F)c1ccncc1 [compound 6614, 2,2-difluoro-2-(pyridin-4-yl)acetic acid] | Weak (Higher than 0.1 mM)
O=C(O)Cc1ccc(Oc2ccncc2)cc1 [compound 6615, 2-[4-(pyridin-4-yloxy)phenyl]acetic acid] | Weak (Higher than 0.1 mM)
NC(=O)CC(N)c1ccnc(Br)c1 (centres unmarked) [compound 6616, 3-amino-3-(2-bromopyridin-4-yl)propanamide] | Weak (Higher than 0.1 mM)
O=C(NCC(F)(F)C(=O)O)c1ccnc(Br)c1 [compound 6618, 3-[(2-bromopyridin-4-yl)formamido]-2,2-difluoropropanoic acid] | Strong (0.01 mM)
O=C(O)C(F)(F)c1ncccn1 [compound 6619, 2,2-difluoro-2-(pyrimidin-2-yl)acetic acid] | Weak (Higher than 0.1 mM)
O=C(O)c1ccc2ccnc(Cl)c2c1 [compound 6627, 1-chloroisoquinoline-7-carboxylic acid] | Moderate (0.1 mM)
O=C(O)/C=C/c1ccnc(Br)c1[N+](=O)[O-] [compound 6631, (2E)-3-(2-bromo-3-nitropyridin-4-yl)prop-2-enoic acid] | Moderate (0.1 mM)
Cl.N=C(N)c1cccc(Br)n1 [compound 6634, 6-bromopyridine-2-carboximidamide hydrochloride[HCl]] | Weak (Higher than 0.1 mM)
N=C(N)NCc1cccc(Br)n1 [compound 6636, N-[(6-bromopyridin-2-yl)methyl]guanidine] | Moderate (0.1 mM)
NCCCc1ccnc(Br)c1 [compound 6649, 3-(2-bromopyridin-4-yl)propan-1-amine] | Moderate (0.1 mM)
O=C(O)C(F)(F)c1cccc(-c2ccc(C(F)(F)F)cc2F)n1 [compound 6659, 2,2-difluoro-2-{6-[2-fluoro-4-(trifluoromethyl)phenyl]pyridin-2-yl}acetic acid] | Moderate (0.1 mM)
O=C(O)C(F)(F)c1nc(F)c(F)cc1F [compound 6660, difluoro(3,5,6-trifluoropyridin-2-yl)acetic acid] | Moderate (0.1 mM)
O=C(O)C(F)c1nc(F)c(F)cc1F (centres unmarked) [compound 6661, 2-fluoro-2-(3,5,6-trifluoropyridin-2-yl)acetic acid] | Moderate (0.1 mM)
NC(Cc1cccc(Br)c1)C(=O)O (centres unmarked) [compound 6669, 2-amino-3-(3-bromophenyl)propanoic acid] | Moderate (0.1 mM)
O=C(O)C(F)(F)c1ccc(F)c(Br)n1 [compound 6681, (6-bromo-5-fluoropyridin-2-yl)(difluoro)acetic acid] | very strong
O=C(O)C(F)(F)c1ccc(C(F)(F)F)c(Br)n1 [compound 6682, [6-bromo-5-(trifluoromethyl)pyridin-2-yl](difluoro)acetic acid] | Strong (0.01 mM)
(2,6-dibromopyridin-4-yl)-2,2-difluoroacetic acid [compound 6632] | Weak (Higher than 0.1 mM)
(2-bromopyridin-4-yl)(oxo)acetic acid [compound 6626] | Moderate (0.1 mM)
(2E)-3-(2-bromo-strong-nitropyridin-4-yl)prop-2-enoic acid [compound 6608] | Moderate (0.1 mM)
(2E)-3-(3-chloro-1H-1,2,4-triazol-5-yl)prop-2-enoic acid [compound 5621] | Weak (Higher than 0.1 mM)
(2E)-3-(5-chlorothiophen-2-yl)prop-2-enoic acid [compound 5607] | Moderate (0.1 mM)
(6-bromopyridin-2-yl)methyl 2-(2-chlorothiophen-3-yl)acetate [compound 5802] | Moderate (0.1 mM)
